These results are taken from publication PMC3206020, “Analogous Mechanisms of Resistance to Benzothiazinones and Dinitrobenzamides in Mycobacterium smegmatis” (PLoS ONE, 2011).

In test [1] the target is T1, NfnB (Mycolicibacterium smegmatis, UniProt A0R6D0).
T1 construct: purified NfnB protein
Description: LC/MS/MS detection of conversion of DNB1 to its hydroxylamine by purified NfnB. The format is biochemical.

The target in test [2] is T2, DprE1 (MSMEG_6382) (Mycolicibacterium smegmatis, UniProt A0R607).
T2 construct: recombinant DprE1 expressed as N-terminal six-histidine and thioredoxin fusion (pET-32b), digested with PreScission Protease
The test can be described thus: steady-state fluorescence titration (enzyme-bound FAD fluorescence). The format is binding.

What is called Kd is the constant that tells how readily two partners part at equilibrium. A lower Kd goes with a tighter complex. `COc1ccc(OCCNC(=O)c2cc([N+](=O)[O-])cc([N+](=O)[O-])c2)cc1` [DNB1, N-(2-(4-methoxyphenoxy)ethyl)-3,5-dinitrobenzamide]: the “LC/MS/MS detection of conversion of DNB1 to its hydroxylamine by purified NfnB” value in test [1] is recorded as “NfnB was able to convert DNB1 into the corresponding hydroxyl amine-derivative in the presence of NADPH”. The compound also came in with a Kd in test [2] of 7.3 ± 0.8 µM.
In the case of `O=C(NCCOCc1cccc(Cl)c1)c1cc([N+](=O)[O-])cc([N+](=O)[O-])c1` [DNB3, N-(2-(3-chlorobenzyloxy)ethyl)-3,5-dinitrobenzamide], the Kd in test [2] stood at 1.8 ± 0.1 µM.
